Measurements from patent US6680301B2, “Transfer of molecules into the cytosol of cells” (Photocure AS, priority 1994, dated 2004).
“Also recorded” adds a separate entry of the source. [FluoU] = uridine (ribose) carrying fluorescein on the base; {invT} = 3'-3' inverted thymidine; m = 2'-O-methyl; r = 2'-OH (RNA)

Columns and labels:
[1] = test system: NHIK 3025 cells; test: Protein synthesis (3[H]leucine incorporation) after photosensitizer, toxin and light; assay type: cell-based, human
Experimental: FIG. 2 illustrates protein synthesis in NHIK 3025 cells after treatment with gelonin in the absence or presence of TPPS2a and 50 sec light exposure. Symbols: ◯, TPPS2a+light; ●, −TPPS2a−light; ∇, +TPPS2a−light; ▾, −TPPS2a+light. […] Protein synthesis was measured by measuring incorporation of ^3[H]leucine into proteins, 24 hours after light exposure.
(§1) NHIK 3025 cells were incubated with TPPS2a (Formula I) and gelonin, separately or together for 18 hours, followed by 1 hour in TPPS2a and gelonin-free medium before the cells were exposed to light. Protein synthesis was measured 24 hours after exposure to light. The photodynamic treatment, which kills 10-20% of the cells alone, reduced the protein synthesis by 30-40% (FIG. 2).
(§2) The intracellular location of the photosensitizers are lysosomal (TPPS4, TPPS2a, AlPcS2a) and extralysosomal (3-THPP). The following abbreviations are used: AlPcS2a for aluminum phtalocyanine with 2 sulfonate groups on adjacent phenyl rings; TPPS4 for meso-tetraphenylporphine with 4 sulfonate groups; TPPS2a for meso-tetraphenylporphine with 2 sulfonate groups on adjacent phenyl rings; 3-THPP for tetrahydroxylphenyl porphine. The cell lines used were carcinoma cells in situ from human cervix (NHIK 3025), Chinese hamster lung fibroblasts (V79), SV40-transformed African Green monkey kidney (CV1-simian fibroblasts-like cells) (Cos-7) human osteosarcoma cells (OHS) and small cell lung cancer cells (H146). All experiments were designed as in Example 1.

[2] = test system: lysosomal cathepsin; test: Inhibition of lysosomal cathepsin by photodynamic action; assay type: cell-based, human; conditions: culture of NHIK 3025 cells
Description: This was a surprising effect of the present invention and assists in maintaining the viability and functionality of the cells after transporting molecules into cytosol by disrupting endosomal/lysosomal membranes.

[3] = test system: THX-cells; test: PCI-induced transfection of TPPS2a-treated THX-cells (Example 23); assay type: cell-based, human; conditions: 2 μg/ml TPPS2a, blue light 30-150 s, pEGFP-N1-polylysine complex
Experimental: FIG. 24 illustrates PCI induced transfection of TPPS2a-treated THX-cells. Cells were treated with TPPS2a and transfected with a complex of plasmid DNA and polylysine as described in the text of Example 23. After light treatment the cells were analysed by flow cytometry. The white circle represents the total population of living cells, the black sector represents the fraction of cells that was positive for GFP-expression. Light exposure times are indicated on the Figure.
A pEGFP-N1-polylysine complex (5 μg DNA, charge ratio 1.2 was prepared as described above (see Example 17).
THX-cells were seeded out into 6 well plates (60 000 cells per well). After overnight incubation 2 μg/ml of the photosensitizer TPPS2a was added and the cells were incubated further for 18 h at 37° C. The cells were then washed 3 times with culture medium and transfected with the pEGFP-N1-polylysine complex for 6 h. The transfected cells were washed once with medium, and after addition of 2 ml of culture medium the cells were exposed to blue light (Appl. Photophysics, Nood. 3026, London) for 30, 60, 90, 120 or 150 s (control cells were not exposed to the light) and incubated further at 37° C. After 2 days the cells were seeded out into bigger 3004 dishes and incubated further so that the total incubation time before flow cytometry analysis was 108 h.

[4] = test system: NHIK 3025 cells; test: Cell killing / clonogenic survival after TPPS2a, gelonin and light; assay type: cell-based, human
Experimental: as §1
NHIK 3025 cells were incubated with TPPS2a and gelonin according to the design of Example 1.
Clonogenic survival of the cells was measured 24 hours after exposure to light. […] This is in accordance with prior art regarding killing unwanted cells with PDT. […] Increased concentration of added gelonin leads to more gelonin in the cytosol, as indicated by an increased sensitivity of the cells to photoactivation.

[5] = test system: THX-cells; test: Transfection efficiency after PCI with different doses of AlPcS2a (Example 20); assay type: cell-based, human; conditions: 5 or 40 μg/ml AlPcS2a, pEGFP-N1-polylysine complex, 2 or 4 min light
Experimental: FIG. 21 illustrates transfection efficiency after PCI with different doses of AlPcS2a. Cells were treated with different doses of the photosensitizer, transfected with a plasmid DNA-polylysine complex and analysed by flow cytometry as described in the text of Example 20. the white bars represent an AlPcS2a dose of 5 μg/ml, while the black bars represent 40 μg/ml.
THX-cells were seeded out into 6 well plates (60 000 cells per well). After overnight incubation AlPcS2a in concentrations of 5 μg/ml or 40 μg/ml was added, and the cells were incubated for 18 h at 37° C. The cells were then washed 3 times with culture medium and transfected with pEGFP-N1-polylysine complex (amount of plasmid 5 μg/ml, charge ratio 1.2, see Example 17) for 6 h. The transfected cells were washed once with medium, and after addition of 2 ml of culture medium the cells were exposed to red light (Phillips TL 20 W/09, filtered through a Cinemoid 35 filter) for 2 or 4 min (control cells were not exposed to the light) and incubated further at 37° C. for 40 hrs before flow cytometry analysis (see Example 17).

[6] = test system: V79 cells; test: Protein synthesis after photosensitizer and light with or without gelonin; assay type: cell-based, Chinese hamster; conditions: 25 μg/ml AlPcS2a
Experimental: FIG. 5 illustrates protein synthesis in V79 cells after treatment with 25 μg/ml AlPcS2 and light in the absence and presence of 1 μg/ml gelonin. Symbols: ● Photosensitizer+toxin; ◯ photosensitizer.
as §2
This example relates to use of the photosensitizer AlPcS2a in V79 cells with or without gelonin as the toxin (FIG. 5). […] (Moan, J., Berg, K., Anholt, H. and Madslien, K. (1994). Sulfonated aluminum phtalocyanines as sensitizers for photochemotherapy. Effects of small light doses on localization, dye fluorescence and photosensitivity in V79 cells. Int. J. Cancer 58: 865-870.)

[7] = test system: OHS cells; test: Protein synthesis after TPPS2a and light with or without gelonin; assay type: cell-based, human; conditions: 3 μg/ml TPPS2a, 3 μg/ml gelonin, 50 μM chloroquine or 10 mM NH4Cl
Experimental: FIG. 13 illustrates protein synthesis in OHS cells after treatment with 3 μg/ml TPPS2a for 18 hours followed by 4 hours in the absence of TPPS2a and in the absence or presence of 3 μg/ml gelonin before exposure to light. The cells were incubated for the same 4 hours in 50 μM chloroquine or 10 mM NH4Cl to inhibit lysosomal protein degradation.
as §2
(FIG. 13). In this cell line there is a considerable protein degradation in the lysosomes, which in the present example is inhibited by incubating the cells for 4 hours in either 50 μM chloroquine or 10 mM NH4Cl.

[8] = test system: H146 cells; test: as above; assay type: cell-based; conditions: 0.3 μg/ml TPPS2a, 1 μg/ml gelonin
Experimental: FIG. 6 illustrates protein synthesis in H146 cells after treatment with 0.3 μg/ml TPPS2a and light in the absence and presence of 1 μg/ml gelonin. Symbols as in FIG. 5.
as §2
(FIG. 6). TPPS2a is known to be lysosomally located in the cell. […]

[9] = test system: COS-7 cells; test: as above; assay type: cell-based, African Green monkey; conditions: 3 μg/ml TPPS2a, 1 μg/ml gelonin
Experimental: FIG. 11 illustrates protein synthesis in COS-7 cells after treatment with 3 μg/ml TPPS2a and light in the absence and presence of 1 μg/ml gelonin. Symbols as in FIG. 5.
as §2

[10] = test system: THX human melanoma cells; test: PCI relocalization of fluorescein-labeled ribozyme (fluorescence microscopy); assay type: cell-based
Experimental: FIG. 14 illustrates subcellular localization of a fluorescein-ribozyme (5.5 μM) and AlPcS2a (20 μg/ml) in THX cells after 18 h incubation followed by 1 h wash. The Figure illustrates localization without light exposure (A) and after 10 min red light exposure followed by 40 min incubation in the dark (B). (Magnification 40×2.5).
The ribozyme employed in this example was a 37-mer synthetic 2′-O-methylated ribozyme designed against mRNA of the metastasis associated protein capl. The sequence (SEQ ID NO:1) was as follows:
5′-UAGUUCUCU GAUGAGGCCGNUAGGCCGAAA CUUGUU Y-3′, (SEQ ID NO: 1) where N is bases with 2′-O-methylated ribose, Y is uridine with a 3′-3′ inverted thymidine at the 3′ end, N is fluorescein attached to uracil.
To study the intracellular localization of the photosensitizer AlPcS2a and the ribozyme, THX human melanoma cells were plated on 16 well Lab-Tek (Nunc Inc.) chamber slides (3000 cells well^−1). After 18 h the culture medium was replaced with fresh RPMI medium supplemented with 10% fetal calf serum (FCS, Integro b.v., Holland) and containing […] AlPcS2a and […] ribozyme. […]
Control cells were observed without irradiation. […] Phase-contrast and fluorescence micrographs were recorded by means of a cooled charge-coupled device (CCD) camera (Astromed 3200, Cambridge, England).

Oc1cccc(-c2c3nc(c(-c4cccc(O)c4)c4ccc([nH]4)c(-c4cccc(O)c4)c4nc(c(-c5cccc(O)c5)c5ccc2[nH]5)C=C4)C=C3)c1 [3-THPP, tetrahydroxylphenyl porphine, reference compound]
difference in protein synthesis effect with or without gelonin ([1]; 0.25 μg/ml 3-THPP, light, 1 μg/ml gelonin, comparative example): no significant difference

O=S(=O)(O)c1ccc(-c2c3nc(c(-c4ccc(S(=O)(=O)O)cc4)c4ccc([nH]4)c(-c4ccccc4)c4nc(c(-c5ccccc5)c5ccc2[nH]5)C=C4)C=C3)cc1 [TPPS2a, meso-tetraphenylporphine with 2 sulfonate groups on adjacent phenyl rings]
inhibition of lysosomal cathepsin by photodynamic action [2]: substantially inhibited
transfection-enhancing effect of PCI light treatment with TPPS2a as photosensitizer [3]: substantial transfection-enhancing effect; also recorded: essentially the same as for AIPcS2a
reduction of protein synthesis by the photodynamic treatment alone ([1]; TPPS2a and light, no gelonin, 24 hours after light): 30-40%
cells killed by the photodynamic treatment alone ([4]; TPPS2a and light, no gelonin): 10-20%
clonogenic survival with TPPS2a and light ([4]; light exposure increased, 24 hours after light): virtually all cells were killed

aluminum phtalocyanine with 2 sulfonate groups on adjacent phenyl rings [AlPcS2a, reference compound]
percentage of transfected cells versus photosensitizer concentration [5]: increased with increasing photosensitizer concentration
protein synthesis with photosensitizer and light, without toxin ([6]; selected light dose): small reduction in protein synthesis

gelonin
protein synthesis with photosensitizer, light and gelonin ([6]; 1 μg/ml gelonin): profoundly reduced
transport of toxin into cells by TPPS2a and light [7]: demonstrates the transport of gelonin into OHS cells
transport of toxin into cells by TPPS2a and light [8]: transport of the toxin gelonin into H146 cells without essentially affecting the viability of the cells
transport of toxin into cells by TPPS2a and light [9]: demonstrates the transport of gelonin into COS-7 cells
IC50 of gelonin for inhibition of protein synthesis when combining PDT and gelonin ([1]; 3.2 μg/ml TPPS2a, 50 sec light, measured 24 hours after light): 0.2 µg/mL
transport of gelonin into cells with TPPS4 and light ([1]; 75 μg/ml TPPS4, 50 sec light, different gelonin concentrations): demonstrates transport of gelonin into NHIK 3025 cells
transport of gelonin into cells in controls ([1]; gelonin alone with light, or TPPS4 and gelonin without light): no transport of gelonin into the cells was obtained
effect of gelonin alone on protein synthesis ([1]; gelonin alone, presence or absence of light, no PDT): inhibits protein synthesis to some extent
clonogenic survival when gelonin is added to TPPS2a and light ([4]; 0.2 or 2.0 μg/ml gelonin): the survival rate drops

ribozyme: 37-mer synthetic 2′-O-methylated fluorescein-labeled ribozyme designed against mRNA of the metastasis associated protein capl (SEQ ID NO:1) (UAGUUCUCUGAUGAGGCCGUUAGGCCGAAACUUGUUY; sugars from the 5' end mmmmmmmmmrrmrrrrmmrrrrrrmmrrrrmmmmmmr, [FluoU] at 20, 3' {invT}, backbone and the base at N not given here)
subcellular localization, nonirradiated cells ([10]; 5.5 μM ribozyme, 20 μg/ml AlPcS2a, 18 h, no light): mainly localized in intracellular granules
subcellular localization after light exposure ([10]; 10 min red light, then 40 min): most of the ribozyme fluorescence was present in the cytosol

saporin
transport of toxin into cells by TPPS2a and light ([1]; 3.2 μg/ml TPPS2a, 1 μg/ml toxin): demonstrates transport of the toxin saporin into NHIK 3025 cells
